Experimental data: patent US8765707B2, “MicroRNA-140-5p as a tumor suppressor and sensitizing agent for chemotherapy” (University of Houston System, priority 2011, dated 2014)
“Also recorded” adds a separate entry of the source.

How the values were obtained:
[1] = system: CHLA255 neuroblastoma cell line; assay: MTT proliferation assay in CHLA255 neuroblastoma cells; assay type: cell-based; settings: CHLA255 stable cell line expressing microRNA with GFP, compared to control cells
Experimental: (§1) […] sequences (SEQ ID NOS: 3-4), which mimic miR-140-5p wildtype (SEQ ID NO: 1) and mutant miR-140-5p (SEQ ID NO: 2), were transfected into CHLA255 neuroblastoma cell line upper-GFP vector. Table 1 identifies the nucleotide sequences of the wildtype and mutant microRNAs and their mimics. The altered nucleotides in the mutant sequences are shown in bold.
(§2) The impact of these sequences on these cells was measured by increase in absorbance from the MTT assay (FIG. 2A) and the ability to form colonies on a soft agar plate in a clonogenicity assay (FIG. 2B). Stable cell line expression of microRNAs with GFP were compared to control cells. […] Colony formation assays were carried out in soft agar-representative wells showing colony growth at 10 days. Colonies were stained and counted by eye or by digital image analysis software.

[2] = system: CHLA255 neuroblastoma cell line; assay: Soft agar colony formation (clonogenicity) assay; assay type: cell-based; settings: CHLA255, colony growth at 10 days, triplicate experiments
Experimental: as §1, §2

[3] = system: CHLA-255 neuroblastoma tumors; assay: In vivo orthotopic xenograft model of neuroblastoma; parameters: species or system mouse; settings: tumors over-expressing miR-140-5p vs control CHLA-255; Kruskal-Wallis p<0.01; n=9
Description: FIG. 3 illustrates the impact of miR-140-5p on in vivo orthotopic xenograft model of neuroblastoma. *Kruskal-Wallis method p<0.01; mean±SEM; n=9 in miR-140-5p cohort, n=10 in all other cohorts. Using the contralateral kidney (*) for comparison the average tumor weight for each cohort+SEM.

MYCN = MYCN induction in conditional MYCN3 cell line (QPCR); assay type: cell-based; settings: 1 ug/ml doxorubicin
Experimental: In FIG. 1 using a conditional MYCN cells line MYCN3, neuroblastoma patients with high and low MYCN were simulated. […] Induced MYCN is functional as shown by alteration in cell cycle distribution 24 hours after exposure to doxorubicin. Chip-PCR results for E-boxes of two known MYCN target genes MIR17HG and MDM2 confirming the specificity of the immunoprecipitation and relative enrichment for MYCN target gene promoters.

Compound | Proliferation as measured by increase in absorbance from MTT assay [1] | Colony counts in soft agar [2] | Average tumor weight [3] | Increase in MYCN mRNA message level (MYCN) [fold]
miR-140-5p: SEQ ID NO: 1, CAGUGGUUUUACCCUAUGGUAG (listed as RNA, chemistry not given here) | consistently decrease the proliferation rates; also recorded: significantly decreases the proliferation | significantly decrease colonies | significantly smaller than control; also recorded: significantly suppresses in vivo tumor growth and burden | –
COc1cccc2c1C(=O)c1c(O)c3c(c(O)c1C2=O)C[C@@](O)(C(=O)CO)C[C@@H]3O[C@H]1C[C@H](N)[C@H](O)[C@H](C)O1 [doxorubicin] | – | – | – | 20
